Test results: article PMC8290231 (Cancer Medicine, 2021)
Where two headings read alike, the source gives them in different places.

Legend:
Ba/F3‐FGFR1‐V561F [1] = assay: Apoptosis assay by flow cytometry (Annexin V / 7-AAD); format: cell-based; conditions: 1000 nM
Description: After incubation, cells were collected and washed twice with pre‐cold PBS. About 6 × 10^5 cells were resuspended in 100 μl of 1× BD binding buffer solution (#556454, BD), and then stained with 7‐ADD (#559925, BD) and Annexin V‐PE (#556422, BD) in the dark for 15 min. Finally, 400 μl of 1×BD binding buffer solution were added to stop dyeing. The cells were then measured on a Guava easyCyte flow cytometer (Merck, USA).

Ba/F3‐FGFR1‐V561F [2] = assay: Cell cycle analysis by flow cytometry (propidium iodide); format: cell-based; conditions: 1000 nM
Description: About 6 × 10^5 cells were re‐suspended in 150 μl of BD Cytofix/Cytoperm buffer solution I for 10 min at room temperature. The cell suspensions were added with BD Cytofix/Cytoperm buffer solution II and incubated with another 10 min at room temperature, and then incubated with 200 μl of propidium iodide buffer (0.1 mg/ml) in the dark for 10 min at 4℃. Assays were performed with a Guava easyCyte flow cytometer (Merck, USA).

MKN‐1 = assay: CCK-8 cell proliferation assay; format: cell-based; conditions: Homo sapiens, read-out: antiproliferative IC50, MKN‐1
Description: (§1) The base medium for MDA‐MB‐453 cell line is DMEM medium (CORNING, USA). All other cell lines were cultured in RPMI‐1640 medium supplemented with 10% FBS, 100 U/ml of penicillin, and […] of streptomycin in 5% CO2 at 37℃. The cells in the logarithmic growth phase were used for the experiments.
(§2) Cells were seeded in 96‐well plate in complete medium (1000–6000 cells/well) and cultured for overnight. Then the cells were exposed to gradient concentrations (0.0005–10 μM) of compounds. Cell proliferation was analyzed by Cell Counting Kit 8 (CK04, Dojindo Laboratories, Japan) after co‐incubation for a further 72 h. IC50 values were calculated by fitting of concentration–response curves using GraphPad Prism 8.01 software. Each assay was repeated at least three times.
(§3) The expression and activation levels of FGFR1–4 in these cells were determined via western blot experiments (Figure S1).

KATOIII = assay: CCK-8 cell proliferation assay; format: cell-based; conditions: Homo sapiens, KATO III, read-out: antiproliferative IC50, KATOIII
Description: as §1, §2, §3

MDA‐MB‐231 = assay: CCK-8 cell proliferation assay; format: cell-based; conditions: Homo sapiens, MDA-MB-231, 72 h
Description: as §1, §2, §3

A204 = assay: CCK-8 cell proliferation assay; format: cell-based; conditions: Homo sapiens, read-out: antiproliferative IC50, A204
Description: as §1, §2, §3

NCI‐H716 = assay: CCK-8 cell proliferation assay; format: cell-based; conditions: Homo sapiens, read-out: antiproliferative IC50, NCI‐H716
Description: as §1, §2, §3

H1581 = assay: CCK-8 cell proliferation assay; format: cell-based; conditions: Homo sapiens, read-out: antiproliferative IC50, H1581
Description: as §1, §2, §3

MDA‐MB‐453 = assay: CCK-8 cell proliferation assay; format: cell-based; conditions: Homo sapiens, read-out: antiproliferative IC50, MDA‐MB‐453
Description: as §1, §2, §3

A549 = assay: CCK-8 cell proliferation assay; format: cell-based; conditions: Homo sapiens, A549, 72 h, read-out: antiproliferative IC50, A549
Description: as §1, §2, §3

RT112 = assay: CCK-8 cell proliferation assay; format: cell-based; conditions: Homo sapiens, read-out: antiproliferative IC50, RT112
Description: as §1, §2, §3

Ba/F3(+IL‐3) = assay: CCK-8 proliferation assay in parental Ba/F3 cells; format: cell-based; conditions: Mus musculus, read-out: IC50 (μΜ) Ba/F3(+IL‐3)
Description: (§4) The Ba/F3 cell lines stably expressing FGFR1, FGFR1‐V561M, FGFR1‐V561F, FGFR1‐K656N, and FGFR1‐K656E were self‐established through electroporation pCDNA3.1‐TEL plasmids using the Amaxa Cell Line Nucleofector Kit V (Lonza, Cologne, Germany). Stable cell lines were selected by G418 (Merck, USA) and then withdrawal of IL‐3 (R&D). […] Parental Ba/F3 cells were maintained in RPMI 1640 supplemented with 10% FBS, 100 U/ml of penicillin, […] of streptomycin, and 10 ng/ml of IL‐3, while all Ba/F3 stable cell lines were cultured in the same medium without IL‐3.
as §2
(§5) There is, however, no commercially available FGFR1 mutant kinase to validate this. Therefore, we constructed Ba/F3 model cells stably expressing FGFR1‐WT, K656E, K656N, V561M, and V561F mutations.

SNU16 = assay: CCK-8 cell proliferation assay; format: cell-based; conditions: Homo sapiens, SNU-16, 72 h, read-out: antiproliferative IC50, SNU16
Description: as §1, §2, §3

FGFR1‐V561M = conditions: no reference given; cited from earlier work
Ba/F3‐FGFR1‐K656E = assay: CCK-8 proliferation assay in Ba/F3 stable cells; format: cell-based; conditions: Mus musculus, BaF3, 72 h, read-out: IC50 (μΜ) Ba/F3‐FGFR1‐K656E
Description: as §4, §2, §5

Ba/F3‐FGFR1 = assay: CCK-8 proliferation assay in Ba/F3 stable cells; format: cell-based; conditions: Mus musculus, BaF3, 72 h, read-out: IC50 (μΜ) Ba/F3‐FGFR1
Description: as §4, §2, §5

Ba/F3‐FGFR1‐K656N = assay: CCK-8 proliferation assay in Ba/F3 stable cells; format: cell-based; conditions: Mus musculus, BaF3, 72 h, read-out: IC50 (μΜ) Ba/F3‐FGFR1‐K656N
Description: as §4, §2, §5

Ba/F3‐FGFR1‐V561F [3] = assay: CCK-8 proliferation assay in Ba/F3 stable cells; format: cell-based; conditions: Mus musculus, BaF3, 72 h, read-out: IC50 (μΜ) Ba/F3‐FGFR1‐V561F
Description: as §4, §2, §5

Ba/F3‐FGFR1‐V561M = assay: CCK-8 proliferation assay in Ba/F3 stable cells; format: cell-based
Description: as §4, §2, §5

FGFR1 WT = conditions: no reference given; cited from earlier work

With `C=CC(=O)N1CC[C@H](n2nc(C#Cc3cc(OC)cc(OC)c3)c3c(N)ncnc32)C1` [TAS120] the effect on apoptosis (Ba/F3‐FGFR1‐V561F [1]) was “weak effect” and the “effect on cell cycle” value (Ba/F3‐FGFR1‐V561F [2]) was “weak effect”.

For `COCCNc1cc(NC(=O)N2CCCc3cc(CN4CCN(C)CC4=O)c(C=O)nc32)ncc1C#N` [FGF401], the IC50 (MKN‐1; MKN-1, negative control, CCK-8, 72 h) was > 10000 nM, the IC50 (KATOIII; FGFR2 amplification, CCK-8, 72 h) was 9380 ± 2860 nM and the IC50 (MDA‐MB‐231; read-out: antiproliferative IC50, MDA‐MB‐231, negative control, CCK-8, 72 h) was > 10000 nM. For the same molecule, the IC50 (A204; A204, FGFR1 amplification, CCK-8, 72 h) was 8250 ± 708 nM, the IC50 (NCI‐H716; NCI-H716, FGFR2 amplification, CCK-8, 72 h) was > 10000 nM and the IC50 (H1581; NCI-H1581, FGFR1 amplification, CCK-8, 72 h) was > 10000 nM. For the same molecule, the IC50 (MDA‐MB‐453; MDA-MB-453, FGFR4‐Y367C, CCK-8, 72 h) was 62.3 ± 27.7 nM, the IC50 (A549; negative control, CCK-8, 72 h) was > 10000 nM and the IC50 (RT112; RT-112, FGFR3‐TACC3, CCK-8, 72 h) was > 10000 nM.

In the case of `CCN1C(=O)N(c2c(F)c(OC)cc(OC)c2F)Cc2cnc3[nH]c(CN4CCOCC4)cc3c21` [Pemigatinib], the IC50 (Ba/F3(+IL‐3); BaF3, parental cells with IL-3, CCK-8, 72 h) is reported as 8980 ± 1400 nM.

Molecule `Cc1ccc(C(=O)Nc2ccc(CN3CCN(C)CC3)c(C(F)(F)F)c2)cc1C#Cc1cnc2cccnn12` [Ponatinib] has an IC50 (MKN‐1; MKN-1, 72 h) of 758 ± 72 nM, an IC50 (KATOIII; 72 h) of 18.7 ± 0.8 nM and an IC50 (SNU16) of 78.2 ± 10.2 nM. It also gave an IC50 (MDA‐MB‐231; read-out: antiproliferative IC50, MDA‐MB‐231) of 701 ± 69.9 nM, an IC50 (A204; A204, 72 h) of 169 ± 134 nM and an IC50 (NCI‐H716; NCI-H716, 72 h) of 26.4 ± 2.9 nM. The IC50 (H1581; NCI-H1581, 72 h) was 128 ± 19.1 nM, the IC50 (MDA‐MB‐453; MDA-MB-453, 72 h) was 707 ± 26.4 nM and the IC50 (A549) was 990 ± 54.1 nM. The IC50 (RT112; RT-112, 72 h) was 216 ± 8.2 nM, the “reported FGFR1‐V561M kinase inhibitory activity” value (FGFR1‐V561M) was 18.6 and the IC50 (Ba/F3‐FGFR1‐K656E) was 88 ± 28 nM. For the same molecule, the IC50 (Ba/F3‐FGFR1) was 33 ± 2.8 nM, the IC50 (Ba/F3‐FGFR1‐K656N) was 47 ± 8.8 nM and the IC50 (Ba/F3‐FGFR1‐V561F [3]) was 56 ± 9 nM. For the same molecule, the “fold increase of IC50 value, Ba/F3‐FGFR1‐V561M compared to Ba/F3‐FGFR1‐WT” value (Ba/F3‐FGFR1‐V561M) was 10 fold, the IC50 (Ba/F3‐FGFR1‐V561M; Mus musculus, BaF3, 72 h, read-out: IC50 (μΜ) Ba/F3‐FGFR1‐V561M) was 400 ± 11 nM and the IC50 (Ba/F3(+IL‐3); BaF3, 72 h) was 2380 ± 420 nM. For the same molecule, the “reported FGFR1 WT kinase inhibitory activity” value (FGFR1 WT) was 1.6.
